Experimental data as given in ChEMBL document CHEMBL1201862, “PubChem BioAssay data set” (2004).
Calls of active or inactive are those of the source.

How the values were obtained:
[1] = biological target: G-protein coupled receptor 35 (Homo sapiens, UniProt Q9HC97); assay: inhibition of zaprinast-stimulated GPR35 beta-arrestin translocation – imaging, U2OS, beta-arrestin-GFP, zaprinast agonist, primary screen (AID 2058); type: functional;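 note: antagonist potency meaning inhibition of agonist-induced arrestin redistribution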
Sequence of G-protein coupled receptor 35 (Q9HC97 whole entry): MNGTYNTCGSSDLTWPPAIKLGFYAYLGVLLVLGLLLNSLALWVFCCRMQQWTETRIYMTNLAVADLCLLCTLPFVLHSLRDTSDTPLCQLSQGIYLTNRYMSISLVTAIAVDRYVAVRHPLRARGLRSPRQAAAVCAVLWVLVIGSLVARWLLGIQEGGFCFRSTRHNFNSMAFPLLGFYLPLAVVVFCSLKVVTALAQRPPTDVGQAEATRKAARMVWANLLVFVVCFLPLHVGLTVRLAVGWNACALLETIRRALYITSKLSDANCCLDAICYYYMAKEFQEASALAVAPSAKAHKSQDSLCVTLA

Interleukin-8 [2] = biological target: T1, Interleukin-8 (Homo sapiens, UniProt P10145); assay: SAR analysis of Tumor necrosis factor alpha (TNF-alpha) induced IL-8 secretion in MCF-7/NOD1 cells - Set 2. [Related pubchem assays (depositor defined):AID1575, AID2250, AID2260]; type: functional, cell-based
T1 sequence (P10145 whole entry): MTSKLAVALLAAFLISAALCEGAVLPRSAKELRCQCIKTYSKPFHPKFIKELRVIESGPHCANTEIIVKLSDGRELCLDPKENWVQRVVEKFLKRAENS

Interleukin-8 [3] = biological target: T1, Interleukin-8; assay: SAR analysis of GM-Tri-DAP induced IL-8 secretion in MCF-7/NOD1 cells - Set 2. [Related pubchem assays (depositor defined):AID1575, AID1578, AID2333]; type: functional, cell-based
[4] = biological target: T2, Nucleotide-binding oligomerization domain-containing protein 1 (Homo sapiens, UniProt Q9Y239); assay: SAR analysis of NF-kappaB dependent luciferase using DAP as an inducer - Set 2. [Related pubchem assays (depositor defined):AID1566, AID1575, AID1578, AID1579, AID1849, AID1852, AID2264]; type: functional
T2 sequence (Q9Y239 whole entry): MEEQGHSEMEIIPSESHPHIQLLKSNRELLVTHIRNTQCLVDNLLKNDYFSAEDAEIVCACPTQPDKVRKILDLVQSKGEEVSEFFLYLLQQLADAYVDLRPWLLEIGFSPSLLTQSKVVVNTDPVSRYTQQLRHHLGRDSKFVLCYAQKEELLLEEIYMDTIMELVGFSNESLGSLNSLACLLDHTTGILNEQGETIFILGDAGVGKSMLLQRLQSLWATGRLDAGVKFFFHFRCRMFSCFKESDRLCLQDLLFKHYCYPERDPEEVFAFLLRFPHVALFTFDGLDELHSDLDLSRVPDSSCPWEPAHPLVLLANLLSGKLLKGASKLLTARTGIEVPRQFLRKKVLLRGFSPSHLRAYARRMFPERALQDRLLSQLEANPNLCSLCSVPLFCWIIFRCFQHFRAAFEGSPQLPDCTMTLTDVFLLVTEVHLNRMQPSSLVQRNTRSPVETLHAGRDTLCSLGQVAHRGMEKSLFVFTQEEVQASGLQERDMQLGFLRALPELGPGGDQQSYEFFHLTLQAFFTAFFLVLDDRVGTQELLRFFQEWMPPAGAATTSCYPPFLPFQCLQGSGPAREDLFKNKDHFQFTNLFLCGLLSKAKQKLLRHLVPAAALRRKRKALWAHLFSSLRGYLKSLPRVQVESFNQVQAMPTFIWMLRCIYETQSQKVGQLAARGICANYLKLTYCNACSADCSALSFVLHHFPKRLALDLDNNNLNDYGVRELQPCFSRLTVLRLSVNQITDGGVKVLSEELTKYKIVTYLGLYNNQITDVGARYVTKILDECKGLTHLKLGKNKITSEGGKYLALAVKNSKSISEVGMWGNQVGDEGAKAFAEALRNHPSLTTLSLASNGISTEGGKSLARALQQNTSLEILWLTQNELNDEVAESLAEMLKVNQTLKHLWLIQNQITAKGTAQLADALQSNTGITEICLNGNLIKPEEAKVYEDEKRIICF

[5] = biological target: T2, Nucleotide-binding oligomerization domain-containing protein 1; assay: SAR analysis of compounds that inhibit NOD1 - Set 3. [Related pubchem assays (depositor defined):AID1566, AID1575, AID1578, AID1849, AID1852, AID2333, AID2335, AID2466]; type: functional
Tumor necrosis factor = Tumor necrosis factor (Homo sapiens, UniProt P01375); assay: analog potency on TNFa NF-kB signaling – cell-based, set 3, SAR follow-up (AID 2801); type: functional
Sequence of Tumor necrosis factor (P01375 whole entry, the tested form may be a part): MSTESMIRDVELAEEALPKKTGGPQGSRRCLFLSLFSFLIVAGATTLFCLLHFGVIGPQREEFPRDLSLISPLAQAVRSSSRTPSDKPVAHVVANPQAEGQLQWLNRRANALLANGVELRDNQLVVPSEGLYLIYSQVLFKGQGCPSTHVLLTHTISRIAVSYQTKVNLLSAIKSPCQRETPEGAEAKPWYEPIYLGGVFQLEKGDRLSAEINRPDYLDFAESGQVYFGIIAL

[6] = biological target: T3, Nucleotide-binding oligomerization domain-containing protein 2 (Homo sapiens, UniProt Q9HC29); assay: inhibition of MDP-driven NOD2 NF-kB reporter – cell-based, set 3, SAR follow-up (AID 2799); type: functional
T3 sequence (Q9HC29 whole entry, the tested form may be a part): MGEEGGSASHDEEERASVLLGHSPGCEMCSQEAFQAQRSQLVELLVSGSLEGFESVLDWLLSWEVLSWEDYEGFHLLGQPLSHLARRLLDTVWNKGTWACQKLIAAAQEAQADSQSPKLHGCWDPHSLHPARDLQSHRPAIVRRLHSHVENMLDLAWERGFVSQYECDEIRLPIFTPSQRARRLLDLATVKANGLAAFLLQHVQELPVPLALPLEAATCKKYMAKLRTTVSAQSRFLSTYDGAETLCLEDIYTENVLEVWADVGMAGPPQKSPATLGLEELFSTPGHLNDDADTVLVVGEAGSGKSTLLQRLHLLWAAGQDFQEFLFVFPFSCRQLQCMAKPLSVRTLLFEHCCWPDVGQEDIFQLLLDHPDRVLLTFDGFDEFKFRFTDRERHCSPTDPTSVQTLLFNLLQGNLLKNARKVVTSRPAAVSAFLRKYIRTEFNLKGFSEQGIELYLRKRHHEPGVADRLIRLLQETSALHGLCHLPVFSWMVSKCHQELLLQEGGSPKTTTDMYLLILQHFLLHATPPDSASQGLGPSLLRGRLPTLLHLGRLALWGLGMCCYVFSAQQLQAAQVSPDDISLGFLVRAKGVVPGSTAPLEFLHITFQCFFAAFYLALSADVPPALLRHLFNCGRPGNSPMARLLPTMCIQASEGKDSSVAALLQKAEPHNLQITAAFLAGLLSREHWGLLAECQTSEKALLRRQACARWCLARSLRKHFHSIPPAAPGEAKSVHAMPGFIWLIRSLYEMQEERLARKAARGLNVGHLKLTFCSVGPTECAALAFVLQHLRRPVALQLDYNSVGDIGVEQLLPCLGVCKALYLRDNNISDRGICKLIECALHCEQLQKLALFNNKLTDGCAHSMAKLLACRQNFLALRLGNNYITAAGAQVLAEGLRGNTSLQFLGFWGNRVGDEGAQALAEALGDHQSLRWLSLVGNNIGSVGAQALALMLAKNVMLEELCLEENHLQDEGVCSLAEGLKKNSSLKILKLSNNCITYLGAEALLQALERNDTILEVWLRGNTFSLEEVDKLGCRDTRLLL

[7] = biological target: T3, Nucleotide-binding oligomerization domain-containing protein 2; assay: inhibition of NOD2 signaling – set 2, SAR follow-up (AID 2475); type: functional
[8] = biological target: T2, Nucleotide-binding oligomerization domain-containing protein 1; assay: SAR analysis of compounds that inhibit NOD1 - Set 2. [Related pubchem assays (depositor defined):AID1566, AID1575, AID1578, AID1849, AID1852, AID2333, AID2335, AID2798]; type: functional
HEK293 [9] = assay: SAR analysis of compounds that are cytotoxic to HEK293 - Set 3. [Related pubchem assays (depositor defined):AID1575, AID1578, AID1848, AID1849, AID2001, AID2333, AID2334, AID2335, AID2337, AID2469]; type: functional, cell-based; details: Homo sapiens
HEK293 [10] = assay: SAR analysis of compounds that are cytotoxic to HEK293 - Set 2. [Related pubchem assays (depositor defined):AID1575, AID1578, AID1849, AID2001, AID2333, AID2334, AID2335, AID2337, AID2800]; type: functional, cell-based; details: Homo sapiens
[11] = biological target: G-protein coupled receptor 55 (Homo sapiens, UniProt Q9Y2T6); assay: inhibition of LPI-stimulated GPR55 beta-arrestin translocation – imaging, U2OS, beta-arrestin-GFP, LPI agonist, primary screen (AID 2013); type: functional;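 note: antagonist potency measured as reduced agonist-driven arrestin aggregation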
Sequence of G-protein coupled receptor 55 (Q9Y2T6 whole entry): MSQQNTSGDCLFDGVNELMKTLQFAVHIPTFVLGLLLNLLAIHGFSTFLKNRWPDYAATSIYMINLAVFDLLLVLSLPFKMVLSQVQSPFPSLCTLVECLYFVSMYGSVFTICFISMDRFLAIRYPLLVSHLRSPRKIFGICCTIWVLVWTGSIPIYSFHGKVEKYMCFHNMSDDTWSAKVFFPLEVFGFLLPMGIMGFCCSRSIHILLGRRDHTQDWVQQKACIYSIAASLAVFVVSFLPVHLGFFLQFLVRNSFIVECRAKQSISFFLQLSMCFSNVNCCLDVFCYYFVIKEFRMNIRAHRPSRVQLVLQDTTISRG

[12] = biological target: T4, Intestinal-type alkaline phosphatase (Homo sapiens, UniProt P09923); assay: human intestinal alkaline phosphatase activators, dose response, biochemical, luminescence, uHTS hits (AID 463120); type: functional
T4 sequence (P09923 whole entry): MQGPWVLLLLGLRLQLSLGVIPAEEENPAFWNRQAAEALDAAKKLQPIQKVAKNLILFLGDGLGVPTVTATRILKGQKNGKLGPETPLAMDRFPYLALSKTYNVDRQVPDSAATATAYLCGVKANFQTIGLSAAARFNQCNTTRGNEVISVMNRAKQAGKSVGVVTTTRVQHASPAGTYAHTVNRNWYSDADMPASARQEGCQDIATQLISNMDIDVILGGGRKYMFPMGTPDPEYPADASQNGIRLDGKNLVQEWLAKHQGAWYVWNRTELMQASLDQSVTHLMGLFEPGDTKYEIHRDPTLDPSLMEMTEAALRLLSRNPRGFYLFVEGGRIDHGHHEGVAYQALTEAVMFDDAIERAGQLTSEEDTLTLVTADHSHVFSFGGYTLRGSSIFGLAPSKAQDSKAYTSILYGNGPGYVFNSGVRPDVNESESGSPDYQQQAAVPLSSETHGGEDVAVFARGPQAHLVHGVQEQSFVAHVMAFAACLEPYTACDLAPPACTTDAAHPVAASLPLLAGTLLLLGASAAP

[13] = biological target: T4, Intestinal-type alkaline phosphatase; assay: Dose Response confirmation of uHTS hits from a small molecule inhibitors of human intestinal alkaline phosphatase via a luminescent assay. [Related pubchem assays (depositor defined):AID2544, AID2574]; type: functional

`Cc1nnc(NC(=O)c2sc3nc(-c4cccs4)cc(C(F)(F)F)c3c2N)s1` was tested. Which IC50 [1] did it give?
The IC50 was 610 nM (active).

Which IC50 (Interleukin-8 [2]) does the source give for `C=CCn1c(SCCCc2ccccc2)nc2c1c(=O)[nH]c(=O)n2C` here?
The IC50 was > 25 µM (inactive).

And the IC50 (Interleukin-8 [3])?
Its IC50 is > 25 µM (inactive).

What about the IC50 [4] of the same compound?
The IC50 was > 25 µM (inactive).

And the IC50 [5]?
The IC50 was > 20 µM (inactive).

And the IC50 (Tumor necrosis factor)?
The IC50 was > 20 µM (inactive).

And the IC50 [6]?
The IC50 was > 20 µM (inactive).

What about the IC50 [7] of the same compound?
Its IC50 is 14.8 µM (active).

What about the IC50 [8] of the same compound?
The IC50 was 9.33 µM (active).

And the IC50 (HEK293 [9])?
Its IC50 is > 20 µM (inactive).

What about the IC50 (HEK293 [10]) of the same compound?
The IC50 was > 20 µM (inactive).

For `CCOC(=O)c1c(NC(=O)C2=C(C)N=C(S)NC2c2ccc(C)cc2)sc(C)c1C` (centres undefined), which IC50 [11] is on record?
Its IC50 is < 500 nM (active).

For `COc1ccc(CC2CC(=O)N(c3ccc(C)cc3)C2=O)cc1` (centres undefined), which EC50 [12] is on record?
Its EC50 is > 100 µM (inactive).

And the IC50 [13]?
The IC50 was > 100 µM (inactive).
